Source: paper PMC8899577, “Targeting the anti-apoptotic Bcl-2 family proteins: machine learning virtual screening and biological evaluation of new small molecules” (Theranostics, 2022)

Assays:
[1] = tested on: Sbcl2 melanoma cells; experiment: Cell viability by MTT, Sbcl2; type: cell-based; conditions: Homo sapiens, 72 h
Experimental: (§1) The effect of compounds on cell viability was performed by measuring 3-[4,5-dimethylthiazol-2-yl]-2,5-diphenyltetrazolium bromide inner salt (MTT, Sigma-Aldrich) dye absorbance (solid tumor cells) or by quantization of ATP present in metabolically active cells using CellTiter-Glo® Luminescent (Promega, Fitchburg, Wisconsin, USA) (hematologic cells) following manifacturer's protocol. To evaluate the cell colony-forming ability, cell suspension from different samples was seeded into 60-mm Petri dishes. After 10 days, colonies were stained with 2% methylene blue in 95% ethanol and counted (1 colony > 50 cells). The surviving fractions were calculated as the ratio of absolute survival of the treated sample/survival of DMSO-treated control sample.
Figure 1 Cytotoxic screening of putative inhibitors of Bcl-2 anti-apoptotic proteins. (A) Flow cytometric quantification of propidium iodide exclusion assay in HL60 cells treated with the 49 putative Bcl-2 family inhibitors (50 μM, 72 h). (B) Analysis of cell viability by CellTiterGlo assay in HL60 cells treated for 24 h with concentrations ranging from 5 to 50 μM of the indicated compounds. (C-D) Analysis of cell viability by MTT assay in (C) M14 and (D) Sbcl2 melanoma cell lines treated for 72 h with concentrations ranging from 5 to 50 μM of the indicated compounds. […]

[2] = tested on: M14 melanoma cells; experiment: Cell viability by MTT, M14; type: cell-based, Human; conditions: for cell viability M14: 20 µM for 72 h, vs control; for IC50: Homo sapiens, M14, 72 h, MTT
Experimental: as §1
Figure 1 Cytotoxic screening of putative inhibitors of Bcl-2 anti-apoptotic proteins. (A) Flow cytometric quantification of propidium iodide exclusion assay in HL60 cells treated with the 49 putative Bcl-2 family inhibitors (50 μM, 72 h). (B) Analysis of cell viability by CellTiterGlo assay in HL60 cells treated for 24 h with concentrations ranging from 5 to 50 μM of the indicated compounds. (C-D) Analysis of cell viability by MTT assay in (C) M14 and (D) Sbcl2 melanoma cell lines treated for 72 h with concentrations ranging from 5 to 50 μM of the indicated compounds. (A-D) The results are reported as “viability of treated cells/viability of control cells (Ctrl)” × 100. Data are reported as mean of two (HL60) or three (M14 and Sbcl2) experiments ± SEM.
Figure 4 Analysis of the effect of IS20 and IS21 on cell viability, clonogenic ability and tumor sphere formation in cancer cells. (A) Analysis of cell viability by MTT assay in M14, H1299, HCT116 and MDA-MB-231 cell lines treated with IS20 or IS21 (20 μM for 72 h). The results are reported as “viability of treated cells/viability of control cells (Ctrl)” × 100. (B) Representative images and quantification of clonogenic ability evaluated in M14 and H1299 cells treated with IS20 or IS21 (20 μM for 72 h). Results are reported as percentage of clonogenicity of treated versus control cells. (C) Quantification of tumor sphere formation of M14 and H1299 cells treated with IS20 or IS21 (20 μM for 72 h). Results are reported as percentage of tumor sphere formation of treated versus control. (A-C) Data are reported as mean ± SD of three independent experiments. p-values were calculated between control (Ctrl) and treated cells, ** p < 0.001 and *** p < 0.0001.

[3] = tested on: HL60 cells; experiment: Flow cytometry subG1 peak (PI staining), HL60; type: cell-based, Human; conditions: 20 µM for 24 h
Experimental: Flow cytometric analysis (BD Accuri™ C6, BD Biosciences) was performed to evaluate cell cycle distribution by propidium iodide (PI) staining, and cell viability by using the PI dye exclusion assay as previously reported.
Figure 5 Analysis of apoptosis induction by IS20 and IS21 in leukemia, melanoma and NSCLC cells. […] (A-F) Reported images are representative of two independent experiments with similar results. HSP72/73 or α-Tubulin are shown as loading and transferring control. (G) Flow cytometric quantification of cells in the subG1 peak of cell cycle distribution by propidium iodide staining in HL60 cell line treated with IS20 or IS21 (20 μM for 24 h) and in M14, H1299 and MDA-MB-231 cell lines treated with IS20 or IS21 (20 μM for 72 h). Data are reported as mean ± SD of three independent experiments. p-values were calculated between control (Ctrl) and treated cells, * p < 0.05. (H) Flow cytometric quantification of cells in the subG1 peak by propidium iodide staining in M14 and H1299 cell lines treated with IS20 or IS21 (20 μM, 72 h) in presence or absence of the pan caspase inhibitor z-VAD (50 μM). p-values were calculated between treated control (Ctrl) cells, # p < 0.01, ## p < 0.001 or between cells treated with IS20 or IS21 alone or in combination with z-VAD, * p < 0.05, ** p < 0.005. (G-H) Data are reported as mean of two (H) or three (G) experiments ± SD.

[4] = tested on: HL60 cells; experiment: Western blot of LC3B-I/LC3B-II (autophagy), HL60; type: cell-based, Human; conditions: 20 µM for 24 h
[5] = molecular target: Mcl-1 (Homo sapiens, UniProt Q07820); experiment: SPR binding to immobilized Mcl-1; conditions: 25 °C, 2-site fit, highest affinity site
Experimental: FastStep experiments were performed with a SensiQ Pioneer apparatus. Bcl-2 immobilization on COOH5 sensorchips was carried out essentially as previously reported, [40]. All the experiments were carried out at 25 °C in degassed HEPES 20 mM, pH 7.4, NaCl 150 mM, 0.005% surfactant P20 + 2% DMSO (HBSP2%D). […] Each sensorgram is the average of at least three experiments. The decrease in Response Units (RU) after 165 s indicates analyte dissociation from the immobilized Bcl-2 upon HSBP2%D buffer injection. Control SPR experiments were carried out measuring sensorgrams on Bcl-xL and Mcl-1 (ligands) immobilized on COOH5 sensorchips as previously reported at 25 °C in degassed HBSP2%D buffer. […] Each sensorgram is the average of at least three experiments. The decrease in RU after 180 s indicates analyte dissociation from the immobilized ligands upon HSBP2%D buffer injection. Kinetic evaluation of the sensorgrams was carried out using the Qdat 4.0 program; best fittings were obtained with 2 sites and indicated in red (reported KD values refer to dissociation constants of the highest affinity site).
Figure 3 SPR analysis of the interaction between IS20 or IS21 and Bcl-xL and Mcl-1 proteins. SPR experiments were carried out measuring sensorgrams on Bcl-xL and Mcl-1 (ligands) immobilized on COOH5 sensorchips at 25 °C in degassed HBSP2%D buffer. IS20 and IS21 (analytes) were injected at a flow rate = 30 μL/min, at the following concentrations: 0.3 μM (only for Mcl-1 experiments); 1 μM; 3 μM; 10 μM; 30 μM. Each sensorgram is the average of at least three experiments. The decrease in RU (Response Units) after 180 s indicates analyte dissociation from the immobilized ligands upon HSBP2%D buffer injection. The fitted KD values for Bcl-xL are the following. IS20: 0.42 ± 0.09 μM and IS21: 0.51 ± 0.17 μM. The fitted KD values for Mcl-1are the following. IS20: 3.9 ± 0.30 μM and IS21: 1.16 ± 0.14 μM;

[6] = tested on: normal human fibroblasts; experiment: Viability of normal fibroblasts; type: cell-based; conditions: data not shown

Chain of Mcl-1 (Q07820 whole entry): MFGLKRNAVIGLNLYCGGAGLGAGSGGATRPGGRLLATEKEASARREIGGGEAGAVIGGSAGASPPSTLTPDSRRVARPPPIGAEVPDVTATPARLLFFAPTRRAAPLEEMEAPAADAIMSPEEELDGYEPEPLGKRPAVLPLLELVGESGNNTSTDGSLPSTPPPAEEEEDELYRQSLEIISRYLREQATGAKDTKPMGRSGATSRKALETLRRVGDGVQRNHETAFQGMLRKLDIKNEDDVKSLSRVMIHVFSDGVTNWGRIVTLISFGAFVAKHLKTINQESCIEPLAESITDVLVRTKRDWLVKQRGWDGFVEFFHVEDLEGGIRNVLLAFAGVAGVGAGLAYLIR

| SMILES | IC50 [1] [µM] | cell viability M14 [2] | IC50 [2] [µM] | subG1 peak of cell cycle distribution, HL60 [3] | ratio of LC3B-II on LC3B-I, HL60 [4] | Kd [5] [µM] | effect on normal human fibroblasts viability [6] |
| --- | --- | --- | --- | --- | --- | --- | --- |
| CCCCOc1ccc(C2/C(=C(\O)c3ccc4c(c3)CC(C)O4)C(=O)C(=O)N2c2nnc(SCc3ccc(Cl)cc3)s2)cc1OCC (centres unmarked) [IS20] | 21 | significant inhibition | 19.8 | presence of subG1 peak | Increased ratio | 3.9 ± 0.3 | no significant effect |
| CCCCCOc1ccc(C2/C(=C(\O)c3ccc4c(c3)CC(C)O4)C(=O)C(=O)N2c2nnc(SCc3ccc(Cl)cc3)s2)cc1OCC (centres unmarked) [IS21] | 19.8 | significant inhibition | 16.7 | presence of subG1 peak | Increased ratio | 1.16 ± 0.14 | no significant effect |
